Converted amounts (≈) assume the structure as drawn. Like-named read-outs stand apart in the source and are kept apart here. Marks after values point to notes of the source that are not given here.
Tests used:
[1] = test system: Pseudomonas aeruginosa MDR R22 from China (V1); experiment: MIC assay, CAMHB with alginate oligomer, no visible growth; assay type: cell-based; settings: for MIC: Pseudomonas aeruginosa, Table 1, V1 MDR R22 PA, read-out: MIC
Source text: The study described in Example 1 was repeated with the following strains of bacteria and antibiotics as detailed in Tables 4, 5 and 6.

[2] = test system: Pseudomonas aeruginosa CFA 24-1, clinical mucoid strain (R80); experiment: as above; assay type: cell-based; settings: Pseudomonas aeruginosa, Table 1, R80, read-out: MIC
[3] = test system: Acinetobacter baumannii (MDR ACB, Libya, V4); experiment: MIC-assay, Mueller-Hinton broth with G-block alginate, 384-well, OD600
V11 5702 (Wales) E. coli = experiment: MIC assay, CAMHB with alginate oligomer, no visible growth; assay type: cell-based; settings: Table 5, V11 MDR E.coli
[4] = test system: Burkholderia cepacia (LMG18941, ATCC-BAA-246); experiment: MIC-assay, Mueller-Hinton broth with G-block alginate, 384-well, OD600
[5] = test system: Pseudomonas aeruginosa (MDR 301, PSA, V2); experiment: as above; settings: Pseudomonas aeruginosa, Table 8, V2
[6] = test system: Pseudomonas aeruginosa MDR 301 from Poland (V2); experiment: MIC assay, CAMHB with alginate oligomer, no visible growth; assay type: cell-based; settings: Pseudomonas aeruginosa, Table 1, V2 MDR 301 PA, read-out: MIC
[7] = test system: Klebsiella pneumoniae KP05 506 from India (V3); experiment: as above; assay type: cell-based; settings: Klebsiella pneumoniae, Table 1, V3 KP05 506, read-out: MIC
V22 6056 Acinetobacter = experiment: as above; assay type: cell-based, Acinetobacter lwoffii; settings: Table 5, V22 MDR Acin. lwoff
[8] = test system: Acinetobacter lwoffii (6056, V22); experiment: MIC-assay, Mueller-Hinton broth with G-block alginate, 384-well, OD600
[9] = test system: V23 1322 Burkholderia cepacia; experiment: MIC assay, CAMHB with alginate oligomer, no visible growth; assay type: cell-based
MDR Pseudomonas strains = experiment: MIC assay of Example 1, summary over the MDR Pseudomonas strains; assay type: cell-based, Pseudomonas aeruginosa
[10] = Table 9, G-block (OligoCF-5/20) 0%
[11] = Table 9, G-block (OligoCF-5/20) 2%
[12] = Table 9, G-block (OligoCF-5/20) 6%
[13] = Table 9, G-block (OligoCF-5/20) 10%

For CC(C)(O/N=C(\C(=O)N[C@@H]1C(=O)N2C(C(=O)[O-])=C(C[n+]3ccccc3)CS[C@H]12)c1csc(N)n1)C(=O)O [Ceftazidime], which MIC ([1]; OligoCF-5/20 0G) is on record?
Its MIC is 128 µg/mL (≈ 234 µM).

And the MIC ([1]; OligoCF-5/20 +2% G)?
Its MIC is 64 µg/mL (≈ 117 µM).

And the MIC ([1]; OligoCF-5/20 +6% G)?
The MIC was 32 µg/mL (≈ 58.5 µM).

And the MIC ([1]; OligoCF-5/20 +10% G)?
The MIC was 8 µg/mL (≈ 14.6 µM).

And the “change of MIC in combination with azithromycin by alginate oligomer” value ([1]; Table 3, MDR R22 PA strain)?
Its value is “reduced”.

What about the MIC ([2]; OligoCF-5/20 0G) of the same molecule?
Its MIC is less than 1 µg/mL.

And the MIC ([2]; OligoCF-5/20 +2% G)?
Its MIC is less than 1 µg/mL.

What about the MIC ([2]; OligoCF-5/20 +6% G) of the same molecule?
The MIC was less than 1 µg/mL.

What about the MIC ([2]; OligoCF-5/20 +10% G) of the same molecule?
The MIC was less than 1 µg/mL.

And the MIC [3, 10]?
The MIC was 16 µg/mL (≈ 29.3 µM).

And the MIC [3, 11]?
The MIC was 8 µg/mL (≈ 14.6 µM).

And the MIC [3, 12]?
Its MIC is 8 µg/mL (≈ 14.6 µM).

And the MIC [3, 13]?
The MIC was 8 µg/mL (≈ 14.6 µM).

And the MIC (V11 5702 (Wales) E. coli; Escherichia coli, OligoCF-5/20 0G, read-out: MIC)?
Its MIC is 128 µg/mL (≈ 234 µM).

What about the MIC (V11 5702 (Wales) E. coli; OligoCF-5/20 +2% G) of the same molecule?
The MIC was 64^† μg/ml.

What about the MIC (V11 5702 (Wales) E. coli; OligoCF-5/20 +6% G) of the same molecule?
The MIC was 32^† μg/ml.

What about the MIC (V11 5702 (Wales) E. coli; OligoCF-5/20 +10% G) of the same molecule?
Its MIC is 64^† μg/ml.

And the MIC ([4]; ATCCBAA246|LMG18941, Table 8, G-block (OligoCF-5/20) 0%)?
The MIC was greater than 16 µg/mL.

And the MIC ([4]; ATCCBAA246|LMG18941, Table 8, G-block (OligoCF-5/20) 2%)?
The MIC was 16 µg/mL (≈ 29.3 µM).

And the MIC ([4]; ATCCBAA246|LMG18941, Table 8, G-block (OligoCF-5/20) 6%)?
The MIC was 16 µg/mL (≈ 29.3 µM).

What about the MIC ([4]; ATCCBAA246|LMG18941, Table 8, G-block (OligoCF-5/20) 10%) of the same molecule?
Its MIC is 16 µg/mL (≈ 29.3 µM).

What about the MIC ([5]; G-block (OligoCF-5/20) 0%) of the same molecule?
Its MIC is 0.5 µg/mL (≈ 0.915 µM).

What about the MIC ([5]; G-block (OligoCF-5/20) 6%) of the same molecule?
Its MIC is 0.25 µg/mL (≈ 0.457 µM).

What about the MIC ([6]; OligoCF-5/20 0G) of the same molecule?
Its MIC is 32 µg/mL (≈ 58.5 µM).

What about the MIC ([6]; OligoCF-5/20 +2% G) of the same molecule?
Its MIC is 16 µg/mL (≈ 29.3 µM).

And the MIC ([6]; OligoCF-5/20 +6% G)?
The MIC was 8 µg/mL (≈ 14.6 µM).

What about the MIC ([6]; OligoCF-5/20 +10% G) of the same molecule?
The MIC was 4 µg/mL (≈ 7.32 µM).

And the MIC ([7]; OligoCF-5/20 0G)?
Its MIC is greater than 1020 µg/mL.

And the MIC ([7]; OligoCF-5/20 +2% G)?
The MIC was greater than 1020 µg/mL.

What about the MIC ([7]; OligoCF-5/20 +6% G) of the same molecule?
Its MIC is greater than 1020 µg/mL.

And the MIC ([7]; OligoCF-5/20 +10% G)?
Its MIC is greater than 1020 µg/mL.

And the MIC (V22 6056 Acinetobacter; Acinetobacter, OligoCF-5/20 0G, read-out: MIC)?
Its MIC is 16 µg/mL (≈ 29.3 µM).

And the MIC (V22 6056 Acinetobacter; OligoCF-5/20 +2% G)?
Its MIC is 16 µg/mL (≈ 29.3 µM).

And the MIC (V22 6056 Acinetobacter; OligoCF-5/20 +6% G)?
Its MIC is 4^† μg/ml.

What about the MIC (V22 6056 Acinetobacter; OligoCF-5/20 +10% G) of the same molecule?
Its MIC is 2^† μg/ml.

What about the MIC [8, 10] of the same molecule?
Its MIC is 8 µg/mL (≈ 14.6 µM).

And the MIC [8, 11]?
The MIC was 4 µg/mL (≈ 7.32 µM).

What about the MIC [8, 12] of the same molecule?
Its MIC is 2 µg/mL (≈ 3.66 µM).

What about the MIC [8, 13] of the same molecule?
Its MIC is 2 µg/mL (≈ 3.66 µM).

What about the MIC ([9]; Burkholderia cepacia, Table 5, V23 MDR Burk cep, OligoCF-5/20 0G, read-out: MIC) of the same molecule?
The MIC was 64 µg/mL (≈ 117 µM).

What about the MIC ([9]; Burkholderia cepacia, Table 6, V23, Experiment 1 (18-03-10), OligoCF-5/20 0G, read-out: MIC) of the same molecule?
The MIC was 128 µg/mL (≈ 234 µM).

What about the MIC ([9]; Burkholderia cepacia, Table 6, V23, Experiment 2 (18-03-10), OligoCF-5/20 0G, read-out: MIC) of the same molecule?
Its MIC is 64 µg/mL (≈ 117 µM).

And the MIC ([9]; Burkholderia cepacia, Table 6, V23, Experiment 3 (19-03-10), OligoCF-5/20 0G, read-out: MIC)?
The MIC was 64 µg/mL (≈ 117 µM).

What about the MIC ([9]; Table 5, V23 MDR Burk cep, OligoCF-5/20 +2% G) of the same molecule?
The MIC was 32^† μg/ml.

What about the MIC ([9]; Table 5, V23 MDR Burk cep, OligoCF-5/20 +6% G) of the same molecule?
Its MIC is 8 µg/mL (≈ 14.6 µM).

What about the MIC ([9]; Table 5, V23 MDR Burk cep, OligoCF-5/20 +10% G) of the same molecule?
The MIC was <0.5^† μg/ml.

What about the MIC ([9]; Table 6, V23, Experiment 1 (18-03-10), OligoCF-5/20 +2% G) of the same molecule?
The MIC was 64^† μg/ml.

What about the MIC ([9]; Table 6, V23, Experiment 1 (18-03-10), OligoCF-5/20 +6% G) of the same molecule?
Its MIC is 16^† μg/ml.

What about the MIC ([9]; Table 6, V23, Experiment 1 (18-03-10), OligoCF-5/20 +10% G) of the same molecule?
The MIC was 8^† μg/ml.

What about the MIC ([9]; Table 6, V23, Experiment 2 (18-03-10), OligoCF-5/20 +2% G) of the same molecule?
Its MIC is 64 µg/mL (≈ 117 µM).

What about the MIC ([9]; Table 6, V23, Experiment 2 (18-03-10), OligoCF-5/20 +6% G) of the same molecule?
The MIC was 32^† μg/ml.

And the MIC ([9]; Table 6, V23, Experiment 2 (18-03-10), OligoCF-5/20 +10% G)?
The MIC was 32^† μg/ml.

What about the MIC ([9]; Table 6, V23, Experiment 3 (19-03-10), OligoCF-5/20 +2% G) of the same molecule?
The MIC was 32^† μg/ml.

And the MIC ([9]; Table 6, V23, Experiment 3 (19-03-10), OligoCF-5/20 +6% G)?
Its MIC is 16^† μg/ml.

And the MIC ([9]; Table 6, V23, Experiment 3 (19-03-10), OligoCF-5/20 +10% G)?
Its MIC is 4^† μg/ml.

What about the “effectiveness when used in combination with the alginate oligomers” value (MDR Pseudomonas strains) of the same molecule?
The value was “more effective”.

Reference: US9801901B2, “Alginate oligomers for use in overcoming multidrug resistance in bacteria” (priority 2009, dated 2017)
